This is an account of results in patent US12662478B2, “ATF6 modulators and uses thereof” (Altos Labs, Inc., priority 2019, dated 2026).

Molecules are shown by their SMILES. Where only a bound is given, the exact number is not on record here.

The target in assay [1] is T1, ATF6 (Homo sapiens, UniProt P18850).
T1 construct: endogenous in cells; host or cells: U2-OS (ATCC HTB-96) stably transduced with the Cignal Lenti ATF6 luc reporter (Qiagen #CLS-6031L)
T1 sequence (P18850 1-670): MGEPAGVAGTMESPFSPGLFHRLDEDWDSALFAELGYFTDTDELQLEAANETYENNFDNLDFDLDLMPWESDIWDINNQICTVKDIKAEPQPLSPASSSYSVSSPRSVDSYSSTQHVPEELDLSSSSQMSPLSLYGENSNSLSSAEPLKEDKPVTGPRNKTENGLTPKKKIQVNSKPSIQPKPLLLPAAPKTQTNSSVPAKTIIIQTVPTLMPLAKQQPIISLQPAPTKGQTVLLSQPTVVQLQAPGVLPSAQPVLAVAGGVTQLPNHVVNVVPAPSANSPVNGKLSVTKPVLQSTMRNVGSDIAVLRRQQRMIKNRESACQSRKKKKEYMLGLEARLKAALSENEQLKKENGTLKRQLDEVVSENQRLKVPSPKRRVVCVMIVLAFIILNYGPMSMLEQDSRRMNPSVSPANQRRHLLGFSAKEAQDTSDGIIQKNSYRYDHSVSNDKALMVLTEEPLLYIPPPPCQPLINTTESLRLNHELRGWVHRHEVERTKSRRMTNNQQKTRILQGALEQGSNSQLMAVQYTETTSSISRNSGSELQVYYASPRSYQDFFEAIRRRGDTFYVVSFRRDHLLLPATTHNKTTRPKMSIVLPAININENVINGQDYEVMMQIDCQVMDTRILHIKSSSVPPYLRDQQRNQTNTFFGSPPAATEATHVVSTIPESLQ
Briefly: ERSE ATF6-luciferase assay in presence of Tg-induced ER stress (U2-OS ATF6 TRE-luciferase reporter cells). Format: cell-based. To be noted: in presence of ER stress (thapsigargin), Tg only = 100%; for activity at 1 µM / activity at 10 µM: U2OS, 8 h; for activity at 1 µM / ATF6 activity @ 1 μM [%]: 1 μM test compound. The protocol:
(§1) To understand how exemplary compounds of the invention modulate the activity of ATF6 in absence or presence of endoplasmic reticulum (ER) stress, a Human bone osteosarcoma (U2-OS)-based TRE-luciferase reporter stable cell line was generated to determine the modulation of transcription of ATF6 target genes.
(§2) U2-OS cells were obtained from the American Type Culture Collection (ATCC HTB-96, ATCC Manassas, VA) and were cultured with growing medium containing Dulbecco's Modified Eagle's Medium (DMEM) (Cat. No.: SH30023.02, HyClone) supplemented with fetal bovine serum (FBS) 10% (Cat. No.: 16000044, Gibco) and 1% penicillin-streptomycin antibiotic cocktail (Cat. No.: SV30010, Hyclone).
(§3) Cignal Lenti ATF6 luc reporter (Qiagen #CLS-6031L) was used to produce a stable cell line in U2-OS cells (U2-OS ATF6 TRE-luciferase reporter). The lenti ATF6 reporter is a preparation of replication incompetent, VSV-g pseudotyped lentivirus particles expressing the firefly luciferase gene under the control of a minimal (m)CMV promoter and tandem repeats of the ATF6 transcriptional response element (TRE). The number of response elements as well as the intervening sequence between response elements has been experimentally optimized to maximize the signal to noise ratio.
(§4) Exemplary compounds of the invention and reference compounds were prepared from powder as 10 mM stock solutions in dimethyl sulfoxide (DMSO; Cat. No. #D2650, Sigma Aldrich) and stored at −80° C. in presence of N2 neutral atmosphere.
(§5) For the primary screening, 40,000 U2-OS ATF6 TRE-luciferase reporter cells were plated in poly-D-lysine (Cat. No.: P2636, Sigma) pre-coated white 96-well plates (Thermo Scientific Nunc #136101) with 100 μL of growing medium. Cells were incubated in humidified chambers for 24 hr.
For testing exemplary compounds in presence of ER-stress, cells were pre-treated for 30 min with 50 μL growing medium containing either vehicle (DMSO), 1 or 10 μM test compound. After this pre-incubation, 50 μL of a solution containing 0.2 μM of the ER stress-inducer thapsigargin (Tg) was added to the appropriate wells. The Tg solution also contains vehicle or test compounds at 1 or 10 μM as indicated. The final concentration of DMSO in each well was kept at 0.3%. Plates were incubated for 8 hr in humidified chambers.
After the 8 hr incubation, plates were cooled down to room temperature for 10 min prior to the luciferase assays. Luciferase reactions were performed using Luciferase Assay System (Cat. No.: E4550, Promega). Briefly, each well was washed with 100 μl of PBS 1× and, then, 20 μl of lysis reagent was added into each well. Plates were shaken for 10 min and, then, 50 μl of Luciferase Assay Reagent was added to each well. Luminescence was determined by integration of 1 s with a gain of 110 in a Synergy 4 Microplate reader. All measurements were carried out in triplicate.
The average activity determined from the wells containing vehicle only (DMSO, 0% of ATF6 activity) was used as blank and subtracted from the rest of measurements. The average activity determined from the wells containing Tg only was used as 100% of ATF6 activity. The percentage of modulation of exemplary compounds was calculated by normalizing values to potential maximal activation with Tg.
ATF6 activities of exemplary compounds at 1 and 10 μM in presence Tg-induced ER stress tested in the U2-OS ATF6 TRE-luciferase reporter cells were determined and are shown in Table 2-2 and Table 3-2.

Assay [2] has as its target T1, ATF6. Briefly: ERSE ATF6-luciferase assay in absence of ER stress (U2-OS ATF6 TRE-luciferase reporter cells). Format: cell-based. To be noted: in absence of ER stress (no Tg), normalized to maximal activation with Tg; for activation at 1 µM / activation at 10 µM: U2OS, 8 h; for activation at 1 µM / ATF6 activity @ 1 μM-No Tg [%]: 1 μM test compound; for activation at 1 µM: Table 3-3, read-out: ATF6 activity @ 1 μM-No Tg [%]; for activation at 10 µM / ATF6 activity @ 10 μM - No Tg [%]: 10 μM test compound; for activation at 10 µM: Table 3-3, read-out: ATF6 activity @ 10 μM - No Tg [%]; for ATF6 activity @ 10 μM - No Tg [%] / ATF6 activity @ 1 μM-No Tg [%]: 8 hr, Table 3-3. The protocol:
as §1, §2, §3, §4, §5
For testing exemplary compounds in absence of ER-stress, cells were treated for 8 hr with 100 μL growing medium containing either vehicle (DMSO), 1 or 10 μM test compound or 0.1 μM Tg. The final concentration of DMSO in each well was kept at 0.3%. Plates were incubated in humidified chambers.
After 8 hr of incubation, plates were cooled down to room temperature for 10 min prior to luciferase assays. Luciferase reactions were performed as above. Luminescence was read by integration of 1 s with a gain of 110 in a Synergy 4 Microplate reader. All measurements were carried out in triplicate.
The average activity determined from the wells containing vehicle only (DMSO, 0% of ATF6 activity) was used as blank and subtracted from the rest of measurements. The percentage of modulation of exemplary compound was calculated by normalizing values to potential maximal activation with Tg.
ATF6 activities of exemplary compounds at 1 and 10 μM in absence of Tg-induced ER stress in the U2-OS ATF6 TRE-luciferase reporter cells were determined and are shown in Table 3-2, and Table 3-3.
(In general: A reporter such as luciferase makes a cellular process visible.)

As for `O=C(Nc1cnn(C2CCCC2)c1)c1cc(-c2ccco2)on1` [Compound 3-1, N-(1-cyclopentyl-1H-pyrazol-4-yl)-5-(furan-2-yl)isoxazole-3-carboxamide], the activity at 1 µM at ATF6 [1] (Table 2-3) was greater than 150%. Moreover, the activity at 10 µM on ATF6 [1] (10 μM test compound, Table 2-3) is greater than 150%. Moreover, at ATF6 [2], the activation at 1 µM lay in the range of 0 to 25% and the activation at 10 µM is 0 to 25%.
In the case of `CC(C1CCOC1)n1cc(NC(=O)c2cc(-c3ccco3)on2)cn1` (stereo not shown) [Compound 3-24, 5-(furan-2-yl)-N-(1-(1-(tetrahydrofuran-3-yl)ethyl)-1H-pyrazol-4-yl)isoxazole-3-carboxamide], the “ATF6 activity @ 1 μM [%]” value on ATF6 [1] (8 hr, Table 2-3) was “+ (+ refers to 100% < % activity < 125% at 1 or 10 μM)”. On ATF6 [1] (10 μM test compound, Table 2-3), the activity at 10 µM is greater than 150%. For the same molecule, at ATF6 [2], the “ATF6 activity @ 10 μM - No Tg [%]” value is recorded as “++ (++ refers to 25% < % activity < 50% at 1 or 10 μM test compound)” and the activation at 1 µM lay in the range of 0 to 25%.
For `O=C(Nc1cnn(C2CNC2)c1)c1cc(-c2ccco2)on1` [Compound 3-3, N-(1-(azetidin-3-yl)-1H-pyrazol-4-yl)-5-(furan-2-yl)isoxazole-3-carboxamide], at ATF6 [1] (Table 2-3), the activity at 1 µM is 125 to 150%. Also, on ATF6 [2], the activation at 1 µM fell in the range of 0 to 25%.
In the case of `O=C(Nc1cnn(C2CCNC2)c1)c1cc(-c2ccco2)on1` (stereo not shown) [Compound 3-4, 5-(furan-2-yl)-N-(1-(pyrrolidin-3-yl)-1H-pyrazol-4-yl)isoxazole-3-carboxamide], the activity at 1 µM on ATF6 [1] (Table 2-3) is 125 to 150%. Also, the activity at 10 µM at ATF6 [1] (10 μM test compound, Table 2-3) is greater than 150%. In addition, at ATF6 [2], the activation at 1 µM was 0 to 25% and the activation at 10 µM was in the range of 0 to 25%.
On to `CC(C1CCOC1)n1cc(NC(=O)c2cc(-c3ccco3)on2)cn1` (stereo not shown) [Compound 3-26, 5-(furan-2-yl)-N-(1-(1-(tetrahydrofuran-3-yl)ethyl)-1H-pyrazol-4-yl)isoxazole-3-carboxamide], for which, on ATF6 [1] (8 hr, Table 2-3), the “ATF6 activity @ 1 μM [%]” value is on record as “+++ (+++ refers to >150% at 1 or 10 μM test compound)”. In addition, the “ATF6 activity @ 10 μM [%]” value at ATF6 [1] (10 μM test compound, 8 hr, Table 2-3) is reported as “+++ (+++ refers to >150% at 1 or 10 μM test compound)”. Besides, at ATF6 [2], the “ATF6 activity @ 1 μM-No Tg [%]” value is reported as “+ (+ refers to 0% < % activity < 25% at 1 or 10 μM test compound)” and the “ATF6 activity @ 10 μM - No Tg [%]” value is listed as “+++ (+++ refers to % activity >50 % at 1 or 10 μM test compound)”.
On to `O=C(Nc1cnn(C2CCOC2)c1)c1cc(-c2cccs2)on1` (stereo not shown) [Compound 3-19, N-(1-(tetrahydrofuran-3-yl)-1H-pyrazol-4-yl)-5-(thiophen-2-yl)isoxazole-3-carboxamide], for which the activity at 1 µM at ATF6 [1] (Table 2-3) was greater than 150%. Besides, the activity at 10 µM on ATF6 [1] (10 μM test compound, Table 2-3) was greater than 150%. Besides, on ATF6 [2], the activation at 1 µM lay within 0 to 25% and the activation at 10 µM fell in the range of 25 to 50%.
Take `O=C(Nc1cnn(C2CCOC2)c1)c1cc(-c2ccccn2)on1` (single isomer, unassigned) [Compound 3-20, 5-(pyridin-2-yl)-N-(1-(tetrahydrofuran-3-yl)-1H-pyrazol-4-yl)isoxazole-3-carboxamide]: the “ATF6 activity @ 1 μM [%]” value at ATF6 [1] (8 hr, Table 2-3) is reported as “+ (+ refers to 100% < % activity < 125% at 1 or 10 μM)”. The activity at 10 µM on ATF6 [1] (10 μM test compound, Table 2-3) is greater than 150%. Moreover, on ATF6 [2], the “ATF6 activity @ 10 μM - No Tg [%]” value is listed as “+ (+ refers to 0% < % activity < 25% at 1 or 10 μM test compound)” and the activation at 1 µM fell in the range of 0 to 25%.
Consider `O=C(Nc1cnn(C2CCOC2)c1)c1cc(-c2cccs2)on1` (single isomer, unassigned) [Compound 3-22, N-(1-(tetrahydrofuran-3-yl)-1H-pyrazol-4-yl)-5-(thiophen-2-yl)isoxazole-3-carboxamide], for which the “ATF6 activity @ 1 μM [%]” value at ATF6 [1] (8 hr, Table 2-3) is given as “++ (++ refers to 125% < % activity < 150% at 1 or 10 μM test compound)”. Besides, the activity at 10 µM at ATF6 [1] (10 μM test compound, Table 2-3) is greater than 150%. Further, on ATF6 [2], the “ATF6 activity @ 1 μM-No Tg [%]” value is listed as “+ (+ refers to 0% < % activity < 25% at 1 or 10 μM test compound)” and the “ATF6 activity @ 10 μM - No Tg [%]” value is reported as “++ (++ refers to 25% < % activity < 50% at 1 or 10 μM test compound)”.
Consider `O=C(Nc1cnn(Cc2c(Cl)cncc2Cl)c1)c1cc(-c2ccco2)on1` [Compound 3-6, N-(1-((3,5-dichloropyridin-4-yl)methyl)-1H-pyrazol-4-yl)-5-(furan-2-yl)isoxazole-3-carboxamide], for which the activity at 1 µM at ATF6 [1] (Table 2-3) lay in the range of 100 to 125%. Further, at ATF6 [1] (10 μM test compound, Table 2-3), the activity at 10 µM is 125 to 150%. Moreover, at ATF6 [2], the activation at 1 µM is 0 to 25% and the activation at 10 µM lay in the range of 0 to 25%.
Turning to `O=C(Nc1cnn(CC2CCCC2)c1)c1cc(-c2ccco2)on1` [Compound 3-2, N-(1-(cyclopentylmethyl)-1H-pyrazol-4-yl)-5-(furan-2-yl)isoxazole-3-carboxamide], the activity at 1 µM at ATF6 [1] (Table 2-3) is greater than 150%. Moreover, the activity at 10 µM on ATF6 [1] (10 μM test compound, Table 2-3) is greater than 150%. On ATF6 [2], the activation at 1 µM was 0 to 25% and the activation at 10 µM lay in the range of 0 to 25%.
`CC(c1ccc(C(F)(F)F)cc1C(F)(F)F)n1cc(CCc2nnc(-c3ccccn3)s2)cn1` (stereo not shown) [Compound 2-9, 2-(2-(1-(1-(2,4-bis(trifluoromethyl)phenyl)ethyl)-1H-pyrazol-4-yl)ethyl)-5-(pyridin-2-yl)-1,3,4-thiadiazole]: on ATF6 [1] (Table 2-2), the activity at 1 µM lay within 75 to 100%. Further, the activity at 10 µM at ATF6 [1] (10 μM test compound, Table 2-2) is less than 50%.
